We go through one compound from ChEMBL document CHEMBL1151211, “Isolation, structure, absolute stereochemistry, and HIV-1 integrase inhibitory activity of integrasone, a novel fungal polyketide” (J Nat Prod, 2004).

The test concerns the target Human immunodeficiency virus type 1 integrase (Human immunodeficiency virus 1, UniProt Q7ZJM1). The test can be described thus: Inhibition of HIV1 integrase strand transfer activity.

One may read the IC50 as the concentration at which inhibition is half-maximal. Higher therefore signals weaker potency.

Molecules are shown by their SMILES.

Chain of Human immunodeficiency virus type 1 integrase (Q7ZJM1 whole entry): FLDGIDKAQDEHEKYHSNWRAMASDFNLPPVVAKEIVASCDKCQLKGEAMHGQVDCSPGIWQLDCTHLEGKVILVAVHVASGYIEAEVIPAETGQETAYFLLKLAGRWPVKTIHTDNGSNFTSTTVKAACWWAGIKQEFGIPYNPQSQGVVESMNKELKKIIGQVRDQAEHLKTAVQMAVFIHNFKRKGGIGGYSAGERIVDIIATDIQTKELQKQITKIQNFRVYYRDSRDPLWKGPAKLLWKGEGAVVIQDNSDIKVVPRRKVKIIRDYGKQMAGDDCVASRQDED

For the compound `CCCCCC[C@H]1OC(=O)C2=C1[C@@H](O)[C@@H]1O[C@@H]1[C@@H]2O` [INTEGRASONE], the IC50 was 41 µM.
